In US11447466B2, “Substituted indole compounds useful as inhibitors of TLR7/8/9” (BRISTOL-MYERS SQUIBB COMPANY, priority 2017, dated 2022) one finds IC50 data, which are given here for 13 molecules.

What all share (type): cell-based
For one assay, the target named is T1, human TLR7 (Homo sapiens, UniProt Q9NYK1).
T1 construct: host or cells: HEK-Blue cells
T1 sequence (Q9NYK1 27-1049): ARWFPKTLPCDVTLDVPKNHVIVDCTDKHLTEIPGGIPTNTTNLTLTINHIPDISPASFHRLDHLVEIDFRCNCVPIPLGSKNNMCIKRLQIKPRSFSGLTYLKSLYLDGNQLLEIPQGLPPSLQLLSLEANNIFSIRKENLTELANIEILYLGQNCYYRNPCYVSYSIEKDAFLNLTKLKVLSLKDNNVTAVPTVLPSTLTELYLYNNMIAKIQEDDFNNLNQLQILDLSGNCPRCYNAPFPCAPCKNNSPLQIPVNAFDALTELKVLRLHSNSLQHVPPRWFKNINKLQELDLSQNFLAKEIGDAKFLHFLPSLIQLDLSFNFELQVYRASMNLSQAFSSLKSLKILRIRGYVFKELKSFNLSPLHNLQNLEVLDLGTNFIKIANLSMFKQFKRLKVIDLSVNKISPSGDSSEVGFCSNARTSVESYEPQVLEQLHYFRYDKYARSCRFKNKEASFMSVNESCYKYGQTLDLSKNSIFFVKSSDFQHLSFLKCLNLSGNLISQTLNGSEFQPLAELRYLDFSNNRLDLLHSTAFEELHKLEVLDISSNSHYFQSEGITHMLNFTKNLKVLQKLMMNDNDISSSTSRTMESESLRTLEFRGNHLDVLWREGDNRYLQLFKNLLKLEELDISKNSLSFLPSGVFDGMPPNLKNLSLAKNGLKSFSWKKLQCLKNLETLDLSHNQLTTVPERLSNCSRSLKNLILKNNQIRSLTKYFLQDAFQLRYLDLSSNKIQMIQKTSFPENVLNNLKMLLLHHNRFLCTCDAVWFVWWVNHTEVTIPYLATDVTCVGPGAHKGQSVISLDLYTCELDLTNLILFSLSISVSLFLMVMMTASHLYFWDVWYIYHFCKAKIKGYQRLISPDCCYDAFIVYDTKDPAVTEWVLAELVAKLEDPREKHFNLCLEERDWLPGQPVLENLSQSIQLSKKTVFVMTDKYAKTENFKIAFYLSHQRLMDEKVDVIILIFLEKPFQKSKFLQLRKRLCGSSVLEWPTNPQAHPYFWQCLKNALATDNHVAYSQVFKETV
Nature of the assay: TLR7 inhibition reporter assay (HEK-Blue SEAP reporter, gardiquimod stimulation). The settings on record: HEK-Blue cells overexpressing human TLR7, SEAP reporter, gardiquimod 7.5 μM, 22 hour incubation. In short, it runs like this: (§1)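 Compound treatment: 30 min, RT, 0.05 nM–50 μM final. Agonist: TLR7 gardiquimod 7.5 μM; TLR8 R848 15.9 μM; TLR9 ODN2006 5 nM. Incubation 22 h, 37 °C, 5% CO2. Readout SEAP, HEK-Blue Detection.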
For orientation: Reporter assays use an easily measured gene product as a stand-in for the process of interest.

Another assay concerns the target T2, human TLR8 (Homo sapiens, UniProt Q9NR97).
T2 construct: host or cells: HEK-Blue cells
T2 sequence (Q9NR97 27-1041): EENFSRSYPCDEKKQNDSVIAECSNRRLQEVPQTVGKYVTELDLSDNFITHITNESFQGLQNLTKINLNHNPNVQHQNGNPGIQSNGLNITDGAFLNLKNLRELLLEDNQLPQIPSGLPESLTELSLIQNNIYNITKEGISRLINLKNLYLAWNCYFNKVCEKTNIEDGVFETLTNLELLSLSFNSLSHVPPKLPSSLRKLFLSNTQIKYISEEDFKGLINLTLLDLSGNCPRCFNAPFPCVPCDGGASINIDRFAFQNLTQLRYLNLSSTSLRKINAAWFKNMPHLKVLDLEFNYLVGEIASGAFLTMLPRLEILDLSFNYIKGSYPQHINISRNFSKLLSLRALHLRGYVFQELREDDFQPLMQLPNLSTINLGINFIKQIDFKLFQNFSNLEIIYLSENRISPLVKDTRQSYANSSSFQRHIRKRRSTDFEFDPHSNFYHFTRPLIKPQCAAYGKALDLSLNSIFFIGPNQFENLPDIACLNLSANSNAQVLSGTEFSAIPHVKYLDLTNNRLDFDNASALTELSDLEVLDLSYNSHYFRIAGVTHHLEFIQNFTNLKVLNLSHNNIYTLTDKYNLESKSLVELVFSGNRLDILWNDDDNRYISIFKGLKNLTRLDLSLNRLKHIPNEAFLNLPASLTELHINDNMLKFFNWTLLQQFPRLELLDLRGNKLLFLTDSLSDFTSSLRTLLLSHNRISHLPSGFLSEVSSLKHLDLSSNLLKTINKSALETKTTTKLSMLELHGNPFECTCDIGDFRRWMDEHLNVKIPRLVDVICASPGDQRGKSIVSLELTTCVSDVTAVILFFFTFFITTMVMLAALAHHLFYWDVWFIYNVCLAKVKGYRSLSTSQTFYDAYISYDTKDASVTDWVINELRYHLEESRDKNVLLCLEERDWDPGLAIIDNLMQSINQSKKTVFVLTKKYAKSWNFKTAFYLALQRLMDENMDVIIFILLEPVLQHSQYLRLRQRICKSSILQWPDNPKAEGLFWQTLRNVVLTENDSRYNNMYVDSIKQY
Nature of the assay: TLR8 inhibition reporter assay (HEK-Blue SEAP reporter, R848 stimulation). The settings on record: HEK-Blue cells overexpressing human TLR8, SEAP reporter, R848 15.9 μM, 22 hour incubation. In short, it runs like this: as §1

In another assay the target is T3, human TLR9 (Homo sapiens, UniProt Q9NR96).
T3 construct: host or cells: HEK-Blue cells
T3 sequence (Q9NR96 26-1032): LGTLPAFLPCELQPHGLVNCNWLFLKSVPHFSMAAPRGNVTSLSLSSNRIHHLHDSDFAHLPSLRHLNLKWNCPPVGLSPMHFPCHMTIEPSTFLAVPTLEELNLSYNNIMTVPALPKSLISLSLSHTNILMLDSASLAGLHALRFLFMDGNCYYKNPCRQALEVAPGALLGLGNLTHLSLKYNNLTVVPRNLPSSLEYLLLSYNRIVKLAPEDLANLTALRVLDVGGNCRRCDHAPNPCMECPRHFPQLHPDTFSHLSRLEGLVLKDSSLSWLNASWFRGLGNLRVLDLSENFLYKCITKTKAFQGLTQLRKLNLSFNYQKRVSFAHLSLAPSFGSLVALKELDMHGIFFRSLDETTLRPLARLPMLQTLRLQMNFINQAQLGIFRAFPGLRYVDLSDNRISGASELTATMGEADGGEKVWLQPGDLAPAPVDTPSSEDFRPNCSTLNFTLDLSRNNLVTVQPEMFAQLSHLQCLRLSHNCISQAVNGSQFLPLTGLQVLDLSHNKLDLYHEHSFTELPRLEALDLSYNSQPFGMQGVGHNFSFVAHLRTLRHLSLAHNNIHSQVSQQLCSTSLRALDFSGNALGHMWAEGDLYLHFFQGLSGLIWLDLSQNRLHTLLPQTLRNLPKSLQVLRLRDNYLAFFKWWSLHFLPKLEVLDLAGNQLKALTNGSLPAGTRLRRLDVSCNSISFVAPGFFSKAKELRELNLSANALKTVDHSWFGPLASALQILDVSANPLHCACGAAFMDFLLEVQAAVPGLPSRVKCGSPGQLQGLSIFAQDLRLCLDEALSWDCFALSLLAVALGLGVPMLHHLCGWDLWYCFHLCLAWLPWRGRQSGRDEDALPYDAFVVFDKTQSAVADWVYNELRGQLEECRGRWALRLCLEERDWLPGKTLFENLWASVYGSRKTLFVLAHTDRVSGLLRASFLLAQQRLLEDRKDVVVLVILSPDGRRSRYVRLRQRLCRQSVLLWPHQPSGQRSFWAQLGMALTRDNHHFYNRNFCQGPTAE
Nature of the assay: TLR9 inhibition reporter assay (HEK-Blue SEAP reporter, ODN2006 stimulation). The settings on record: HEK-Blue cells overexpressing human TLR9, SEAP reporter, ODN2006 5 nM, 22 hour incubation. In short, it runs like this:
as §1

SMILES strings stand for the structures. Bounds are passed on as bounds.

By IC50 is commonly meant the point on the concentration scale where inhibition reaches its midpoint. As for `CCCNC(=O)c1cc(-c2[nH]c3ccc(C4CCNCC4)cc3c2C(C)C)cn(C)c1=O` [Example 64, 5-(3-isopropyl-5-(piperidin-4-yl)-1H-indol-2-yl)-1-methyl-2-oxo-N-propyl-1,2-dihydropyridine-3-carboxamide], the IC50 was found to be 480 nM against human TLR7, 1080 nM on human TLR8 and 7380 nM against human TLR9.

In the case of `COC(=O)c1cc(-c2[nH]c3ccc(C4CCNCC4)cc3c2C(C)C)cn(C)c1=O` [Example 37, methyl 5-(3-isopropyl-5-(piperidin-4-yl)-1H-indol-2-yl)-1-methyl-2-oxo-1,2-dihydropyridine-3-carboxylate], the figures for the IC50 at human TLR7, against human TLR8 and on human TLR9 were 458 nM, 182 nM and 2430 nM, respectively.

`Cc1cc(-c2[nH]c3ccc(C4CCN(C(=O)C(C)(C)CO)CC4)cc3c2C(C)C)cn(C)c1=O` [Example 304, 5-(5-(1-(3-hydroxy-2,2-dimethylpropanoyl)piperidin-4-yl)-3-isopropyl-1H-indol-2-yl)-1,3-dimethylpyridin-2(1H)-one]: the IC50 at human TLR7 was 7.8 nM; against human TLR8 it was 80 nM; against human TLR9, no less than 50000 nM.

In the case of `Cc1cc(-c2[nH]c3ccc(C4CCN(C(C)c5cnn(C)c5)CC4)cc3c2C(C)C)cn(C)c1=O` (stereo not drawn) [Example 269, 5-(3-isopropyl-5-(1-(1-(1-methyl-1H-pyrazol-4-yl)ethyl)piperidin-4-yl)-1H-indol-2-yl)-1,3-dimethylpyridin-2(1H)-one], the IC50 turned out to be 35.5 nM against human TLR7, 4.6 nM against human TLR8 and 5900 nM against human TLR9.

`CC(C)c1c(-c2cc(F)c(=O)n(C)c2)[nH]c2ccc(C3CCNCC3)cc12` [Example 13, 3-fluoro-5-(3-isopropyl-5-(piperidin-4-yl)-1H-indol-2-yl)-1-methylpyridin-2(1H)-one]: the IC50 was 18.2 nM on human TLR7, 33.9 nM on human TLR8 and 593 nM on human TLR9.

In the case of `Cc1cc(-c2[nH]c3ccc(C4CCNCC4)cc3c2C(C)C)cn(Cc2ccccc2)c1=O` [Example 46, 1-benzyl-5-(3-isopropyl-5-(piperidin-4-yl)-1H-indol-2-yl)-3-methylpyridin-2(1H)-one], the IC50 against human TLR7 was found to be 2.9 nM; at human TLR8, 29.9 nM; against human TLR9, 919 nM.

`COc1c(C)c(-c2[nH]c3ccc(C4CCN(C5COC5)CC4)cc3c2C(C)C)cn(C)c1=O` [Example 215, 5-(3-isopropyl-5-(1-(oxetan-3-yl)piperidin-4-yl)-1H-indol-2-yl)-3-methoxy-1,4-dimethylpyridin-2(1H)-one]: the figures for the IC50 at human TLR7, against human TLR8 and against human TLR9 were 66.1 nM, 54.9 nM and 17200 nM, respectively.

For the molecule `Cc1cc(-c2[nH]c3ccc(C4CCN(C(=O)CC(C)(C)O)CC4)cc3c2C(C)C)cn(C)c1=O` [Example 303, 5-(5-(1-(3-hydroxy-3-methylbutanoyl)piperidin-4-yl)-3-isopropyl-1H-indol-2-yl)-1,3-dimethylpyridin-2(1H)-one], the IC50 was 9.6 nM on human TLR7, 49.9 nM at human TLR8 and no less than 50000 nM on human TLR9.

Turning to `COCc1cc(-c2[nH]c3ccc(C4CCN(C(C)C)CC4)cc3c2C(C)C)cn(C)c1=O` [Example 347, 5-(3-isopropyl-5-(1-isopropylpiperidin-4-yl)-1H-indol-2-yl)-3-(methoxymethyl)-1-methylpyridin-2(1H)-one], the results for the IC50 against human TLR7, against human TLR8 and against human TLR9 were 7.2 nM, 28.6 nM and 13600 nM, respectively.

For the molecule `Cc1c(-c2[nH]c3ccc(C4CCN(C5CCOCC5)CC4)cc3c2C(C)C)cn(C)c(=O)c1C` [Example 206, 5-(3-isopropyl-5-(1-(tetrahydro-2H-pyran-4-yl)piperidin-4-yl)-1H-indol-2-yl)-1,3,4-trimethylpyridin-2(1H)-one], the IC50 against human TLR7 was 18.9 nM; on human TLR8, 2.6 nM; against human TLR9, 4490 nM.

Consider `Cc1nc(-c2[nH]c3ccc(C4CCN(CC(=O)N(C)C)CC4)cc3c2C(C)C)cn(C)c1=O` [Example 115, 2-(4-(2-(4,6-dimethyl-5-oxo-4,5-dihydropyrazin-2-yl)-3-isopropyl-1H-indol-5-yl)piperidin-1-yl)-N,N-dimethylacetamide], for which the values for the IC50 against human TLR7, against human TLR8 and against human TLR9 were 48 nM, 42.1 nM and 6590 nM, respectively.

Regarding `CCCN1CCC(c2ccc3[nH]c(-c4cc(C)c(=O)n(C)c4)c(C(C)C)c3c2)CC1` [Example 224, 5-(3-isopropyl-5-(1-propylpiperidin-4-yl)-1H-indol-2-yl)-1,3-dimethylpyridin-2(1H)-one], the results for the IC50 against human TLR7, on human TLR8 and against human TLR9 were 1.8 nM, 4.5 nM and 14000 nM, respectively.

`Cc1cc(-c2[nH]c3ccc(C4CCNCC4)cc3c2C(C)C)cn(CC2CC2)c1=O` [Example 34, 1-(cyclopropylmethyl)-5-(3-isopropyl-5-(piperidin-4-yl)-1H-indol-2-yl)-3-methylpyridin-2(1H)-one]: the IC50 against human TLR7 was 7.1 nM; against human TLR8, 48 nM; against human TLR9, 1460 nM.
